From patent US8741915B2, “Dihydropyrimidin-2(1H)-one compounds as S-nitrosoglutathione reductase inhibitors” (N30 Pharmaceuticals, Inc., priority 2009, dated 2014)

Molecular target: GSNOR (Homo sapiens (Human), UniProt P11766)
Experiment: GSNOR assay (inhibition of GSNOR activity in vitro, change in 340 nm absorbance with GSNO/NADH)
Details: GSNOR IC50, Table 1, racemates and separated enantiomers

Chain of GSNOR (P11766 whole entry): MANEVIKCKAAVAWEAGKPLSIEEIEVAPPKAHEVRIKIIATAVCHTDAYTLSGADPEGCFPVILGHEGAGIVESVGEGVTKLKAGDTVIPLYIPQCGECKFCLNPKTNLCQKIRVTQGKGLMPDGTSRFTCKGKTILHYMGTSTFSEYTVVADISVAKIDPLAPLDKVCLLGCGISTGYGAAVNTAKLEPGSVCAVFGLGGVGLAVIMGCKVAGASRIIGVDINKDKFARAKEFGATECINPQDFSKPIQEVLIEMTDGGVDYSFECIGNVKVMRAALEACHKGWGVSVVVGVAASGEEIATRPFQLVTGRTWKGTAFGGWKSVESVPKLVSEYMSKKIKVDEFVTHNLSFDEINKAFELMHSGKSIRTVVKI

IC50 | Compound
0.013 µM | CCOc1cc([C@@H]2NC(=O)NC(c3cnn(C)c3)=C2c2ccsc2)cc(C(=O)O)c1O [Example 146, (S)-3-ethoxy-2-hydroxy-5-(6-(1-methyl-1H-pyrazol-4-yl)-2-oxo-5-(thiophen-3-yl)-1,2,3,4-tetrahydropyrimidin-4-yl)benzoic acid]
0.023 µM | Cn1cc(C2=C(c3ccsc3)[C@H](c3ccc(C(=O)O)c(O)c3)NC(=O)N2)cn1 [Example 169, (S)-2-hydroxy-4-(6-(1-methyl-1H-pyrazol-4-yl)-2-oxo-5-(thiophen-3-yl)-1,2,3,4-tetrahydropyrimidin-4-yl)benzoic acid]

Same assay, conditions: IC50, upper bound (about <)

Compound | IC50
CCOc1cc(C2NC(=O)NC(c3ccccc3)=C2C2CCCCC2)cc([N+](=O)[O-])c1O (centres unmarked) [Example 177, 5-cyclohexyl-4-(3-ethoxy-4-hydroxy-5-nitrophenyl)-6-phenyl-3,4-dihydropyrimidin-2(1H)-one] | < 0.1 µM
CCOc1cc(C2NC(=O)NC(C3CCCCC3)=C2c2ccsc2)cc([N+](=O)[O-])c1O (centres unmarked) [Example 174, 6-cyclohexyl-4-(3-ethoxy-4-hydroxy-5-nitrophenyl)-5-(thiophen-3-yl)-3,4-dihydropyrimidin-2(1H)-one] | < 0.1 µM
CCOc1cc(C2NC(=O)NC(C3CCCC3)=C2c2ccccc2)cc([N+](=O)[O-])c1O (centres unmarked) [Example 172, 6-cyclopentyl-4-(3-ethoxy-4-hydroxy-5-nitrophenyl)-5-phenyl-3,4-dihydropyrimidin-2(1H)-one] | < 0.1 µM
CCOc1cc(C2NC(=O)NC(c3ccc(NC(=O)OC)cc3)=C2c2ccccc2)cc([N+](=O)[O-])c1O (centres unmarked) [Example 83, methyl 4-(6-(3-ethoxy-4-hydroxy-5-nitrophenyl)-2-oxo-5-phenyl-1,2,3,6-tetrahydropyrimidin-4-yl)phenylcarbamate] | < 0.1 µM
CCOc1cc(C2NC(=O)NC(c3ccccc3)=C2c2ccccc2)cc(C#N)c1O (centres unmarked) [Example 69, 3-ethoxy-2-hydroxy-5-(2-oxo-5,6-diphenyl-1,2,3,4-tetrahydropyrimidin-4-yl)benzonitrile] | < 1 µM
COc1cc(C2NC(=O)NC(c3ccccc3)=C2c2ccccc2)cc([N+](=O)[O-])c1O (centres unmarked) [Example 9, 4-(4-hydroxy-3-methoxy-5-nitrophenyl)-5,6-diphenyl-3,4-dihydropyrimidin-2(1H)-one] | < 0.1 µM
CCOc1cc(C2NC(=O)NC(c3ccc4c(c3)OCO4)=C2c2ccccc2)cc([N+](=O)[O-])c1O (centres unmarked) [Example 61, 6-(benzo[d][1,3]dioxol-5-yl)-4-(3-ethoxy-4-hydroxy-5-nitrophenyl)-5-phenyl-3,4-dihydropyrimidin-2(1H)-one] | < 0.1 µM
CCOc1cc(C2NC(=O)NC(c3cccc4ccccc34)=C2c2ccccc2)cc([N+](=O)[O-])c1O (centres unmarked) [Example 81, 4-(3-ethoxy-4-hydroxy-5-nitrophenyl)-6-(naphthalen-1-yl)-5-phenyl-3,4-dihydropyrimidin-2(1H)-one] | < 0.1 µM
CCOc1cc([C@@H]2NC(=O)NC(c3cnn(C)c3)=C2c2ccsc2)cc(C(=O)O)c1O [Example 146, (S)-3-ethoxy-2-hydroxy-5-(6-(1-methyl-1H-pyrazol-4-yl)-2-oxo-5-(thiophen-3-yl)-1,2,3,4-tetrahydropyrimidin-4-yl)benzoic acid] | < 0.1 µM
CCOc1cc(C2NC(=O)NC(c3ccc(NC(C)=O)cc3)=C2c2ccccc2)cc([N+](=O)[O-])c1O (centres unmarked) [Example 73, N-(4-(6-(3-ethoxy-4-hydroxy-5-nitrophenyl)-2-oxo-5-phenyl-1,2,3,6-tetrahydropyrimidin-4-yl)phenyl)acetamide] | < 0.1 µM
Cn1cc(C2=C(c3ccccc3)C(c3ccc(C(=O)O)c(O)c3)NC(=O)N2)cn1 (centres unmarked) [Example 167, 2-hydroxy-4-(6-(1-methyl-1H-pyrazol-4-yl)-2-oxo-5-phenyl-1,2,3,4-tetrahydropyrimidin-4-yl)benzoic acid] | < 0.1 µM
CCOc1cc(C2NC(=O)NC(c3ccc(C(F)(F)F)cc3)=C2c2ccccc2)cc([N+](=O)[O-])c1O (centres unmarked) [Example 113, 4-(3-ethoxy-4-hydroxy-5-nitrophenyl)-5-phenyl-6-(4-(trifluoromethyl)phenyl)-3,4-dihydropyrimidin-2(1H)-one] | < 0.1 µM
CCOc1cc(C2NC(=O)NC(c3ccccc3)=C2c2ccccc2)cc(O)c1C(=O)O (centres unmarked) [Example 161, 2-ethoxy-6-hydroxy-4-(2-oxo-5,6-diphenyl-1,2,3,4-tetrahydropyrimidin-4-yl)benzoic acid] | < 0.1 µM
Cn1cc(C2=C(c3ccsc3)[C@H](c3ccc(C(=O)O)c(O)c3)NC(=O)N2)cn1 [Example 169, (S)-2-hydroxy-4-(6-(1-methyl-1H-pyrazol-4-yl)-2-oxo-5-(thiophen-3-yl)-1,2,3,4-tetrahydropyrimidin-4-yl)benzoic acid] | < 0.1 µM
CN(C)CCOc1cc(C2NC(=O)NC(c3ccccc3)=C2c2ccccc2)cc([N+](=O)[O-])c1O (centres unmarked) [Example 170, 4-(3-(2-(dimethylamino)ethoxy)-4-hydroxy-5-nitrophenyl)-5,6-diphenyl-3,4-dihydropyrimidin-2(1H)-one] | < 1 µM
O=C1NC(c2ccccc2)=C(c2ccccc2)C(c2ccc(O)c([N+](=O)[O-])c2)N1 (centres unmarked) [Example 95, 4-(4-hydroxy-3-nitrophenyl)-5,6-diphenyl-3,4-dihydropyrimidin-2(1H)-one] | < 1 µM
O=C1NC(c2ccccc2)=C(c2ccccc2)C(c2cccc(C(=O)O)c2)N1 (centres unmarked) [Example 93, 3-(2-oxo-5,6-diphenyl-1,2,3,4-tetrahydropyrimidin-4-yl)benzoic acid] | < 100 µM
COc1cc(C2NC(=O)NC(c3ccccc3)=C2c2ccccc2)cc(O)c1C(=O)O (centres unmarked) [Example 165, 2-hydroxy-6-methoxy-4-(2-oxo-5,6-diphenyl-1,2,3,4-tetrahydropyrimidin-4-yl)benzoic acid] | < 0.1 µM
O=C1NC(c2ccccc2)=C(c2ccccc2)C(c2cc(O)c(C(=O)O)c(Cl)c2)N1 (centres unmarked) [Example 163, 2-chloro-6-hydroxy-4-(2-oxo-5,6-diphenyl-1,2,3,4-tetrahydropyrimidin-4-yl)benzoic acid] | < 0.1 µM

The next lines start with the values.

IC50 | Compound
< 0.1 µM | CCOc1cc(C2NC(=O)NC(c3ccncc3)=C2c2ccccc2)cc([N+](=O)[O-])c1O (centres unmarked) [Example 71, 4-(3-ethoxy-4-hydroxy-5-nitrophenyl)-5-phenyl-6-(pyridin-4-yl)-3,4-dihydropyrimidin-2(1H)-one]
< 0.1 µM | CCOc1cc(C2NC(=O)NC(c3ccco3)=C2c2ccccc2)cc([N+](=O)[O-])c1O (centres unmarked) [Example 111, 4-(3-ethoxy-4-hydroxy-5-nitrophenyl)-6-(furan-2-yl)-5-phenyl-3,4-dihydropyrimidin-2(1H)-one]
< 0.1 µM | CCOc1cc(C2NC(=O)NC(c3cccc(C#N)c3)=C2c2ccccc2)cc([N+](=O)[O-])c1O (centres unmarked) [Example 53, 3-(6-(3-ethoxy-4-hydroxy-5-nitrophenyl)-2-oxo-5-phenyl-1,2,3,6-tetrahydropyrimidin-4-yl)benzonitrile]
< 0.1 µM | CCOc1cc(C2NC(=O)NC(c3ccccc3)=C2c2cccc(C#N)c2)cc([N+](=O)[O-])c1O (centres unmarked) [Example 29, 3-(4-(3-ethoxy-4-hydroxy-5-nitrophenyl)-2-oxo-6-phenyl-1,2,3,4-tetrahydropyrimidin-5-yl)benzonitrile]
< 0.1 µM | CCOc1cc(C2NC(=O)NC(c3ccc(C#N)cc3)=C2c2ccccc2)cc([N+](=O)[O-])c1O (centres unmarked) [Example 63, 4-(6-(3-ethoxy-4-hydroxy-5-nitrophenyl)-2-oxo-5-phenyl-1,2,3,6-tetrahydropyrimidin-4-yl)benzonitrile]
< 1 µM | CCOc1cc(C2NC(=O)NC(c3ccccc3)=C2c2ccccc2C)cc([N+](=O)[O-])c1O (centres unmarked) [Example 26, 4-(3-ethoxy-4-hydroxy-5-nitrophenyl)-6-phenyl-5-o-tolyl-3,4-dihydropyrimidin-2(1H)-one]
< 0.1 µM | CCOc1cc(C2NC(=O)NC(c3ccccc3)=C2c2cccc(OC)c2)cc([N+](=O)[O-])c1O (centres unmarked) [Example 23, 4-(3-ethoxy-4-hydroxy-5-nitrophenyl)-5-(3-methoxyphenyl)-6-phenyl-3,4-dihydropyrimidin-2(1H)-one]
< 0.1 µM | CCOc1cc(C2NC(=O)NC(c3ccccc3)=C2c2ccccc2F)cc([N+](=O)[O-])c1O (centres unmarked) [Example 13, 4-(3-ethoxy-4-hydroxy-5-nitrophenyl)-5-(2-fluorophenyl)-6-phenyl-3,4-dihydropyrimidin-2(1H)-one]
